In US20240058365A1, “External Preparation for Treating Epilepsy or Autism Spectrum Disorder” (OSAKA UNIVERSITY, priority 2019, published 2024):
Values joined by “and” are separate entries in the source; they are usually repeats but may differ in a detail not shown here. Identical values can stand only once.

Columns and labels:
[1] = Test Example 6: blood concentration after 7-day intraperitoneal administration; assay type: in vivo, mice (C57BL/6J); conditions: intraperitoneal 3 mg/kg/day for 7 days; 24 hours after the 7th administration; individual mice
Protocol: Sirolimus (3 mg/kg/day) or a placebo (saline) was intraperitoneally administered to mice (C57BL/6J, body weight: 20 g) once a day for 7 days. After 24 hours from the administration on the 7th day, blood was collected from each of the mice, and blood sirolimus concentration was measured.
(§1) The measurement of the blood concentration was performed by the same method as in Test Example 3. The blood concentration after the topical application to the skin was one 26th in terms of average value as compared to the blood concentration after systemic administration by the intraperitoneal administration. […] The action mechanism by which epileptic seizures are suppressed through systemic administration and the mechanism by which epileptic seizures are suppressed through topical application may differ from each other.

[2] = test system: Tuberous sclerosis complex model mice; assay: Test Example 5: number of epileptic seizures (intraperitoneal administration); assay type: in vivo; conditions: intraperitoneal 3 mg/kg/day once a day for 7 days; observed 2 minutes 5 times per day; n=6
Protocol: FIG. 3 is a graph showing results obtained by intraperitoneally administering sirolimus (3 mg/kg/day) or saline to model mice and control mice (normal mice) once a day for 7 days (n=6 in each group). Homo represents tuberous sclerosis complex model mice, and Ct represents control mice (normal mice). *P<0.05, **P<0.01
Sirolimus (3 mg/kg/day) or a placebo (saline) was intraperitoneally administered to model mice and normal mice similar to those in Test Example 1 once a day for 7 days. The number of seizures was measured by observing the mice for 2 minutes 5 times per day (n=6 in each group). […] The number of seizures over 7 days in the group intraperitoneally administered sirolimus was about 5, which was nearly equal to the number of seizures in the case where the 0.2 wt % sirolimus gel was administered to the forehead once a day at 5 mg (10 μg in terms of sirolimus).

[3] = Test Example 6: blood concentration after 7-day topical application; assay type: in vivo, ICR mice; conditions: 0.2 wt % sirolimus gel 5 mg (10 μg sirolimus) on shaved forehead once a day, 7 days; 24 hours after last; individual mice
Protocol: ICR mice (body weight: about 37 g) were obtained (Japan SLC, Inc.). The 0.2 wt % sirolimus gel prepared in Production Example 3 or a placebo (only the base) was applied to their shaved forehead once a day at 5 mg each (10 μg in terms of sirolimus). After 24 hours from the administration on the 7th day, blood was collected from each of the mice, and blood sirolimus concentration was measured.
as §1

For `CO[C@H]1C[C@@H]2CC[C@@H](C)[C@@](O)(O2)C(=O)C(=O)N2CCCC[C@H]2C(=O)O[C@H]([C@H](C)C[C@@H]2CC[C@@H](O)[C@H](OC)C2)CC(=O)[C@H](C)/C=C(\C)[C@@H](O)[C@@H](OC)C(=O)[C@H](C)C[C@H](C)/C=C/C=C/C=C/1C` [Sirolimus, sirolimus], the blood sirolimus concentration [1] was 94.43 ng/ml · blood and 85.59 ng/ml · blood and 48.55 ng/ml · blood and 216.83 ng/ml · blood, the “number of seizures over 7 days” value [2] was “about 5” and the blood sirolimus concentration [3] was 3.87 ng/ml · blood and 2.85 ng/ml · blood and 5.98 ng/ml · blood.
